Where a name gives a salt, the structure may show the parent alone.
These compounds were tested against T1, hNLRP3 (Homo sapiens, UniProt Q96P20) (assay: Measurement of IL-1β production in PMA-differentiated THP-1 cells (hNLRP3 agonist; ELISA, alternative and hTRF procedures)).
T1 construct: THP-1 cells were purchased from the American Type Culture Collection; host or cells: THP-1 cells, PMA-differentiated
T1 sequence (Q96P20 whole entry): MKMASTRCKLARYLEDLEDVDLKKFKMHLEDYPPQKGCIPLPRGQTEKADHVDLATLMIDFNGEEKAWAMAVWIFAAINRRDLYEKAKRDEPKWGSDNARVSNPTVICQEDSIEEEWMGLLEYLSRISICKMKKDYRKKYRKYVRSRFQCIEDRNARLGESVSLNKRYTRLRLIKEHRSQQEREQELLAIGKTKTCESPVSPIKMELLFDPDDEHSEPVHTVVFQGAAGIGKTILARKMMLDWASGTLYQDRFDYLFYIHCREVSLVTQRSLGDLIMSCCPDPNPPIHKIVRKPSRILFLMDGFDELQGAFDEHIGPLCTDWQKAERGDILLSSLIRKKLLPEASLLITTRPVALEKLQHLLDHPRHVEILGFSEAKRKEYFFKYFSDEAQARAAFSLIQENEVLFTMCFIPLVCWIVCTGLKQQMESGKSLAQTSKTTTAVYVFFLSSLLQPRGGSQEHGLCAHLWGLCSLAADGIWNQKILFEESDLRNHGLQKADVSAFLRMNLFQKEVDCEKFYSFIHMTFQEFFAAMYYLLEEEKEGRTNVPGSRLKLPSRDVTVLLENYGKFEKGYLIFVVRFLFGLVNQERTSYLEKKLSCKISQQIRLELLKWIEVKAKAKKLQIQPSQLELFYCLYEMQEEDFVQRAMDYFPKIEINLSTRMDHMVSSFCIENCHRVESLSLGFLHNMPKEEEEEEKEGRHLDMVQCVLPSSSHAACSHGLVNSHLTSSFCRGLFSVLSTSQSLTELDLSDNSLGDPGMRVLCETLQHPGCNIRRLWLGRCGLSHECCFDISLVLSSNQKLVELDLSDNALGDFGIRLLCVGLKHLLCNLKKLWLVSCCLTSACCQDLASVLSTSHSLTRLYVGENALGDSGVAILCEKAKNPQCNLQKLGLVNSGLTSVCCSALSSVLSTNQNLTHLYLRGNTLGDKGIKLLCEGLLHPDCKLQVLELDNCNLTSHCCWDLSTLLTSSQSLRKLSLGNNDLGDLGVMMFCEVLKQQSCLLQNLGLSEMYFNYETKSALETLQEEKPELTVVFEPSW
Type: cell-based
Summary of the method: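 PMA-differentiated THP-1 cells (PMA […] 24 h, 20 μg/ml overnight, or 50 ng/ml overnight, by procedure) replated in RPMI with 2% FBS and exposed to compound (e.g. 100–0.1 μM, 1% DMSO; hTRF format top 10 μM) for 4 h, 2 h, or 2 h respectively. Supernatant IL-1β measured by ELISA, or by hTRF with antibodies diluted 1:40.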
Work on `CC(c1nc2c(N)nc3cc(-c4cccnc4)ccc3c2[nH]1)N1CCCC1=O` (centres unmarked) [Compound 138] yielded an EC50 of 6700 nM. `CCN(Cc1nc2c(N)nc3cc(-n4nccn4)ccc3c2[nH]1)C(C)=O` [Compound 132] was tested, and the EC50 was 3500 nM. In the case of `CCN(Cc1nc2c(N)nc3cc(OC)ccc3c2[nH]1)C(C)=O` [Compound 158, N-((4-Amino-7-methoxy-1H-imidazo[4,5-c]quinolin-2-yl)methyl)-N-ethylacetamide], the EC50 is reported as 24500 nM. `CCC(=O)N(CC)Cc1nc2c(N)nc3cc(-c4cc[nH]n4)ccc3c2[nH]1` [Compound 125] gave an EC50 of 2100 nM. `CCNCc1nc2c(N)nc3cc(-c4cccs4)ccc3c2n1CC` [Compound 468, 1-ethyl-2-[(ethylamino)methyl]-7-(thiophen-2-yl)-1H-imidazo[4,5-c]quinolin-4-amine] showed an EC50 of 2100 nM. Compound `CCC(=O)N(CC)Cc1nc2c(N)nc3cc(-n4cccn4)ccc3c2n1CC` [Compound 481, N-{[4-amino-1-ethyl-7-(1H-pyrazol-1-yl)-1H-imidazo[4,5-c]quinolin-2-yl]methyl}-N-ethylpropanamide] has an EC50 of 630 nM. `CCN(Cc1nc2c(N)nc3cc(-c4cc[nH]n4)ccc3c2[nH]1)CC(C)C` [Compound 453, 2-{[ethyl(2-methylpropyl)amino]methyl}-7-(1H-pyrazol-3-yl)-1H-imidazo[4,5-c]quinolin-4-amine] showed an EC50 of 710 nM. Compound `CN(Cc1nc2c(N)nc3cc(-c4cc[nH]n4)ccc3c2[nH]1)C(=O)C1CC1` [Compound 120] has an EC50 of 1690 nM. `CCNC(=O)N(CC)Cc1nc2c(N)nc3cc(-c4cc[nH]n4)ccc3c2[nH]1` [Compound 457, 1-{[4-amino-7-(1H-pyrazol-3-yl)-1H-imidazo[4,5-c]quinolin-2-yl]methyl}-1,3-diethylurea] showed an EC50 of 6600 nM. For `CCNCc1nc2c(N)nc3cc(-c4ccn[nH]4)ccc3c2n1CC` [Compound 464, 1-ethyl-2-[(ethylamino)methyl]-7-(1H-pyrazol-5-yl)-1H-imidazo[4,5-c]quinolin-4-amine], the EC50 was 240 nM. For `CCN(Cc1nc2c(N)nc3cc(-c4cccs4)ccc3c2n1CCO)C(C)=O` [Compound 482, N-{[4-amino-1-(2-hydroxyethyl)-7-(thiophen-2-yl)-1H-imidazo[4,5-c]quinolin-2-yl]methyl}-N-ethylacetamide], the EC50 was 430 nM. Compound `CCn1c(CN2CCCC2=O)nc2c(N)nc3cc(-c4cccs4)ccc3c21` [Compound 463, 1-{[4-amino-1-ethyl-7-(thiophen-2-yl)-1H-imidazo[4,5-c]quinolin-2-yl]methyl}pyrrolidin-2-one] has an EC50 of 220 nM. For `CCC(=O)N(CC)Cc1nc2c(N)nc3cc(-c4ccn[nH]4)ccc3c2n1CCO` [Compound 475, N-{[4-amino-1-(2-hydroxyethyl)-7-(1H-pyrazol-5-yl)-1H-imidazo[4,5-c]quinolin-2-yl]methyl}-N-ethylpropanamide], the EC50 was 23000 nM. With `CCNCc1nc2c(N)nc3cc(-c4cc[nH]n4)ccc3c2[nH]1` [Compound 101, 2-[(Ethylamino)methyl]-7-(1H-pyrazol-3-yl)-1H-imidazo[4,5-c]quinolin-4-amine hydrochloride] the EC50 was 270 nM. Work on `CC(C)(C)OC(=O)NCc1nc2c(N)nc3cc(-c4cc[nH]n4)ccc3c2[nH]1` [Compound 142] yielded an EC50 of 9100 nM. Compound `Nc1nc2ccc(Cl)cc2c2[nH]c(CN3CCCC3=O)nc12` [Compound 141] has an EC50 of 9000 nM. With `CCNCc1nc2c(N)nc3cc(OC)ccc3c2[nH]1` [Compound 154] the EC50 was 16100 nM. Compound `Nc1nc2cc(-c3cccs3)ccc2c2c1nc(CN1CCCC1=O)n2CCO` [Compound 469, 1-{[4-amino-1-(2-hydroxyethyl)-7-(thiophen-2-yl)-1H-imidazo[4,5-c]quinolin-2-yl]methyl}pyrrolidin-2-one] has an EC50 of 670 nM. Compound `CCN(Cc1nc2c(N)nc3cc(Cl)c(Cl)cc3c2[nH]1)C(C)=O` [Compound 159] has an EC50 of 25900 nM. Work on `NCc1nc2c(N)nc3cc(-c4cc[nH]n4)ccc3c2[nH]1` [Compound 131] yielded an EC50 of 3500 nM. Compound `CCNCc1nc2c(N)nc3cc(-c4cccs4)ccc3c2n1CCO` [Compound 471, 2-{4-amino-2-[(ethylamino)methyl]-7-(thiophen-2-yl)-1H-imidazo[4,5-c]quinolin-1-yl}ethan-1-ol] has an EC50 of 1200 nM. Compound `CCn1c(CN2CCCC2=O)nc2c(N)nc3cc(-c4ccn[nH]4)ccc3c21` [Compound 466, 1-{[4-amino-1-ethyl-7-(1H-pyrazol-5-yl)-1H-imidazo[4,5-c]quinolin-2-yl]methyl}pyrrolidin-2-one] has an EC50 of 1100 nM. In the case of `CCN(Cc1nc2c(N)nc3cc(-n4cccn4)ccc3c2n1CC)C(C)=O` [Compound 479, N-{[4-amino-1-ethyl-7-(1H-pyrazol-1-yl)-1H-imidazo[4,5-c]quinolin-2-yl]methyl}-N-ethylacetamide], the EC50 is reported as 670 nM. `CCN(Cc1nc2c(N)nc3cc(-c4cccs4)ccc3c2n1CC)C(C)=O` [Compound 472, N-{[4-amino-1-ethyl-7-(thiophen-2-yl)-1H-imidazo[4,5-c]quinolin-2-yl]methyl}-N-ethylacetamide] showed an EC50 of 430 nM. Work on `CCN(Cc1nc2c(N)nc3cc(-c4cc[nH]n4)ccc3c2[nH]1)C(=O)NC` [Compound 128] yielded an EC50 of 2900 nM. With `CCC(=O)N(CC)Cc1nc2c(N)nc3cc(-c4cccs4)ccc3c2n1CC` [Compound 480, N-{[4-amino-1-ethyl-7-(thiophen-2-yl)-1H-imidazo[4,5-c]quinolin-2-yl]methyl}-N-ethylpropanamide] the EC50 was 1900 nM. `CCN(Cc1nc2c(N)nc3cc(-c4cc[nH]n4)ccc3c2n1C)C(C)=O` [Compound 121] gave an EC50 of 1820 nM. With `CCN(Cc1nc2c(N)nc3cc(-c4cc[nH]n4)ccc3c2[nH]1)S(C)(=O)=O` [Compound 124] the EC50 was 2400 nM. `CCC(=O)N(CC)Cc1nc2c(N)nc3cc(-c4ccn[nH]4)ccc3c2n1CC` [Compound 473, N-{[4-amino-1-ethyl-7-(1H-pyrazol-5-yl)-1H-imidazo[4,5-c]quinolin-2-yl]methyl}-N-ethylpropanamide] gave an EC50 of 220 nM. Work on `CN(Cc1nc2c(N)nc3cc(-n4cccn4)ccc3c2[nH]1)S(C)(=O)=O` [Compound 119] yielded an EC50 of 1380 nM. Work on `CC(=O)N(C)Cc1nc2c(N)nc3cc(-n4cccn4)ccc3c2[nH]1` [Compound 102, N-((4-Amino-7-(1H-pyrazol-1-yl)-1H-imidazo[4,5-c]quinolin-2-yl)methyl)-N-methylacetamide] yielded an EC50 of 1600 nM. `CCN(Cc1nc2c(N)nc3cc(-c4ccn[nH]4)ccc3c2n1CC)C(C)=O` [Compound 474, N-{[4-amino-1-ethyl-7-(1H-pyrazol-5-yl)-1H-imidazo[4,5-c]quinolin-2-yl]methyl}-N-ethylacetamide] gave an EC50 of 1200 nM. Compound `CCC(=O)N(C)Cc1nc2c(N)nc3cc(-c4cc[nH]n4)ccc3c2[nH]1` [Compound 122] has an EC50 of 1400 nM. `Nc1nc2cc(-c3ccc(Cl)nc3)ccc2c2[nH]c(CN3CCCC3=O)nc12` [Compound 153] was tested, and the EC50 was 12000 nM. In the case of `CCCS(=O)(=O)N(CC)Cc1nc2c(N)nc3cc(-c4cc[nH]n4)ccc3c2[nH]1` [Compound 460, N-{[4-amino-7-(1H-pyrazol-3-yl)-1H-imidazo[4,5-c]quinolin-2-yl]methyl}-N-ethylpropane-1-sulfonamide], the EC50 is reported as 1500 nM.

— US12351580B2, “NLRP3 modulators” (Innate Tumor Immunity, Inc., priority 2017, dated 2025)
